According to ChEMBL document CHEMBL4219148, “Discovery of a highly potent orally bioavailable imidazo-[1, 2-a]pyrazine Aurora inhibitor” (Bioorg Med Chem Lett, 2018):
≈ marks a conversion by molar mass, not a printed value.

Legend:
[1] = Protein binding in rat plasma; assay type: ADME, cell-free; settings: read-out: PPB (converted)
[2] = AUC (0 to 48 hrs) in dog at 1 mg/kg, iv; assay type: ADME, organism-based, Canis lupus familiaris; parameters: dose 1 mg/kg, time < 48 hr, route intravenous; settings: in vivo
[3] = Volume of distribution in mouse at 3 mg/kg, iv; assay type: ADME, organism-based; settings: in vivo
[4] = Oral bioavailability in monkey at 3 mg/kg; assay type: ADME, organism-based, Macaca mulatta; settings: rhesus monkey, in vivo
[5] = biological target: Ribosomal protein S6 kinase alpha-3 (Homo sapiens, UniProt P51812); assay: Inhibition of RSK2 (unknown origin)
[6] = AUC (0 to 48 hrs) in rat at 1 mg/kg, iv; assay type: ADME, organism-based; parameters: time < 48 hr, dose 1 mg/kg, route intravenous; settings: in vivo
[7] = Half life in rat at 1 mg/kg, iv; assay type: ADME, organism-based; settings: in vivo
Cytochrome P450 2C9 = Cytochrome P450 2C9 (Homo sapiens, UniProt P11712); assay: Inhibition of CYP2C9 in human liver microsomes; assay type: ADME
Cytochrome P450 2C19 = Cytochrome P450 2C19 (Homo sapiens, UniProt P33261); assay: Inhibition of CYP2C19 in human liver microsomes; assay type: ADME
[8] = AUC (0 to 24 hrs) in mouse at 50 mg/kg, po; assay type: ADME, organism-based; parameters: time < 24 hr, dose 50 mg/kg, route oral; settings: in vivo
[9] = Half life in monkey at 1 mg/kg, iv; assay type: ADME, organism-based, Macaca mulatta; settings: rhesus monkey, in vivo
[10] = Oral bioavailability in mouse at 50 mg/kg; assay type: ADME, organism-based; settings: in vivo
[11] = Volume of distribution in dog at 1 mg/kg, iv; assay type: ADME, organism-based, Canis lupus familiaris; settings: in vivo
A2780 [12] = assay: Antitumor activity against human A2780 cells xenografted in nu/nu mouse assessed as tumor growth inhibition at 300 mg/kg, po bid; assay type: functional; settings: read-out: TGI
[13] = Clearance in rat at 1 mg/kg, iv; assay type: ADME, organism-based; settings: in vivo
Cytochrome P450 2D6 = Cytochrome P450 2D6 (Homo sapiens, UniProt P10635); assay: Inhibition of CYP2D6 in human liver microsomes; assay type: ADME
[14] = Kinetic solubility of the compound in sodium phosphate buffer/2% DMSO at pH 7.4 by static light scattering method; assay type: physicochemical; settings: read-out: Kinetic_solubility
Aurora kinase A = biological target: T1, Aurora kinase A (Homo sapiens, UniProt O14965); assay: Binding affinity to Aurora A (unknown origin) after 45 mins by fluorescence-based thermal stability shift assay
T1 sequence (O14965 whole entry): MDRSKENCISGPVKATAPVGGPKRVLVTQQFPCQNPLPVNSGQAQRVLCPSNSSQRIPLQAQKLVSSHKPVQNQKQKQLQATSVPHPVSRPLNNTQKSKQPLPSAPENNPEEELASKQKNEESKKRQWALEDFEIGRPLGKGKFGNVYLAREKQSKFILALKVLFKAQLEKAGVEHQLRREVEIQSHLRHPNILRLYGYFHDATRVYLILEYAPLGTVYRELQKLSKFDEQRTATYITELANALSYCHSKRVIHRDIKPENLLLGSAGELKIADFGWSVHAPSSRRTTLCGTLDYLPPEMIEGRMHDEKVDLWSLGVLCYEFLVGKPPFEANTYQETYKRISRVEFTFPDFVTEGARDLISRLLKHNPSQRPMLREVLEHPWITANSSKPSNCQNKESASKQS

[15] = Oral bioavailability in rat at 3 mg/kg; assay type: ADME, organism-based; settings: in vivo
[16] = Volume of distribution in rat at 1 mg/kg, iv; assay type: ADME, organism-based; settings: in vivo
[17] = biological target: Testis-specific serine/threonine-protein kinase 2 (Homo sapiens, UniProt Q96PF2); assay: Inhibition of TSSK2 (unknown origin)
Aurora kinase B = Aurora kinase B (Homo sapiens, UniProt Q96GD4); assay: Binding affinity to Aurora B (unknown origin) after 45 mins by fluorescence-based thermal stability shift assay
[18] = Oral bioavailability in dog at 3 mg/kg; assay type: ADME, organism-based, Canis lupus familiaris; settings: in vivo
[19] = Volume of distribution in monkey at 1 mg/kg, iv; assay type: ADME, organism-based, Macaca mulatta; settings: rhesus monkey, in vivo
[20] = Protein binding in mouse plasma; assay type: ADME, cell-free; settings: read-out: PPB (converted)
[21] = Half life in mouse at 3 mg/kg, iv; assay type: ADME, organism-based; settings: in vivo
[22] = AUC (0 to 6 hrs) in rat at 10 mg/kg, po; assay type: ADME, organism-based; parameters: time < 6 hr, dose 10 mg/kg, route oral; settings: in vivo
[23] = AUC (0 to 48 hrs) in rat at 3 mg/kg, po; assay type: ADME, organism-based; parameters: dose 3 mg/kg, time < 48 hr, route oral; settings: in vivo
A2780 [24] = assay: Antitumor activity against human A2780 cells xenografted in nu/nu mouse assessed as tumor growth inhibition at 10 mg/kg, po bid for 3 days; assay type: functional; settings: 72 h, read-out: TGI
HCT-116 = assay: Induction of endoreduplication in human HCT116 cells assessed as accumulation of >=4 N DNA preincubated for 24 hrs followed by compound washout by FACS analysis; assay type: functional
Rattus norvegicus = assay: AUC (0 to 24 hrs) in rat at 30 mg/kg, po; assay type: ADME, organism-based; parameters: time < 24 hr, dose 30 mg/kg, route oral; settings: in vivo, 24 h
Mus musculus [25] = assay: Toxicity in nu/nu mouse xenografted with human A2780 cells assessed as death at 10 to 25 mg/kg, po after 3 days; assay type: organism-based; settings: in vivo, 72 h
[26] = Intrinsic clearance in cryopreserved dog hepatocytes assessed per million cells; assay type: ADME, cell-based, Canis lupus familiaris, Hepatocyte; settings: read-out: CLH
A2780 [27] = assay: Antitumor activity against human A2780 cells xenografted in nu/nu mouse assessed as tumor growth inhibition at 10 mg/kg, ip bid for 3 days; assay type: functional; settings: 72 h, read-out: TGI
[28] = Equilibrium solubility of the compound in citrate buffer at pH 5.3 by HPLC method; assay type: physicochemical
[29] = AUC (0 to 24 hrs) in rat at 10 mg/kg, iv; assay type: ADME, organism-based; parameters: time < 24 hr, dose 10 mg/kg, route intravenous; settings: in vivo
Mus musculus [30] = assay: Toxicity in nu/nu mouse xenografted with human A2780 cells assessed as body weight loss at 10 mg/kg, po bid after 3 days; assay type: organism-based; settings: in vivo, 72 h
[31] = biological target: Interleukin-1 receptor-associated kinase 4 (Homo sapiens, UniProt Q9NWZ3); assay: Inhibition of IRAK4 (unknown origin)
[32] = Intrinsic clearance in cryopreserved human hepatocytes assessed per million cells; assay type: ADME, cell-based, Hepatocyte; settings: read-out: CLH
[33] = AUC (0 to 48 hrs) in monkey at 10 mg/kg, po; assay type: ADME, organism-based, Macaca mulatta; parameters: time < 48 hr, dose 10 mg/kg, route oral; settings: rhesus monkey, in vivo
[34] = biological target: Ribosomal protein S6 kinase; assay: Inhibition of S6K (unknown origin); assay type: protein assay, Homo sapiens
Mus musculus [35] = assay: Toxicity in nu/nu mouse xenografted with human A2780 cells assessed as body weight loss at 25 mg/kg, po qd after 3 days; assay type: organism-based; settings: in vivo, 72 h
[36] = Half life in rat at 10 mg/kg, iv; assay type: ADME, organism-based; settings: in vivo
[37] = Intrinsic clearance in cryopreserved monkey hepatocytes assessed per million cells; assay type: ADME, cell-based, Macaca mulatta, Hepatocyte; settings: rhesus monkey, read-out: CLH
[38] = Intrinsic clearance in cryopreserved rat hepatocytes assessed per million cells; assay type: ADME, cell-based, Hepatocyte; settings: read-out: CLH
A2780 [39] = assay: Antitumor activity against human A2780 cells xenografted in nu/nu mouse assessed as tumor growth inhibition at 25 mg/kg, po qd for 3 days; assay type: functional; settings: 72 h, read-out: TGI
[40] = Clearance in rat at 10 mg/kg, iv; assay type: ADME, organism-based; settings: in vivo
[41] = Oral bioavailability in rat at 30 mg/kg; assay type: ADME, organism-based; settings: in vivo
[42] = Volume of distribution in rat at 10 mg/kg, iv; assay type: ADME, organism-based; settings: in vivo
[43] = Oral bioavailability in monkey at 10 mg/kg; assay type: ADME, organism-based, Macaca mulatta; settings: rhesus monkey, in vivo

Chain of Cytochrome P450 2D6 (P10635 whole entry): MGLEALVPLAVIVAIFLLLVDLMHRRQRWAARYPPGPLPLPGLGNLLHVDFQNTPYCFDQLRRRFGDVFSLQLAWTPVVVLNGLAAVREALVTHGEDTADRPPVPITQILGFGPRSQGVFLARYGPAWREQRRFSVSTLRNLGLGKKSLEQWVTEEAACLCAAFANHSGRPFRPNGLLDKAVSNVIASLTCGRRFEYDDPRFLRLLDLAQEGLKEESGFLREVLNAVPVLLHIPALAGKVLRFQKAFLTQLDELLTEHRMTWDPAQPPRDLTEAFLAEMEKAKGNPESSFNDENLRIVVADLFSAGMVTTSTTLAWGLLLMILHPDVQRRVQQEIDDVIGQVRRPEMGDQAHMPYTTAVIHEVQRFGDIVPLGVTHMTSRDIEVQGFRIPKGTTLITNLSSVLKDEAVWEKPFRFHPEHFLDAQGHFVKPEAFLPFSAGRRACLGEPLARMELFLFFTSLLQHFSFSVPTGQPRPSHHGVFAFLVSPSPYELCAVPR
Chain of Cytochrome P450 2C9 (P11712 whole entry): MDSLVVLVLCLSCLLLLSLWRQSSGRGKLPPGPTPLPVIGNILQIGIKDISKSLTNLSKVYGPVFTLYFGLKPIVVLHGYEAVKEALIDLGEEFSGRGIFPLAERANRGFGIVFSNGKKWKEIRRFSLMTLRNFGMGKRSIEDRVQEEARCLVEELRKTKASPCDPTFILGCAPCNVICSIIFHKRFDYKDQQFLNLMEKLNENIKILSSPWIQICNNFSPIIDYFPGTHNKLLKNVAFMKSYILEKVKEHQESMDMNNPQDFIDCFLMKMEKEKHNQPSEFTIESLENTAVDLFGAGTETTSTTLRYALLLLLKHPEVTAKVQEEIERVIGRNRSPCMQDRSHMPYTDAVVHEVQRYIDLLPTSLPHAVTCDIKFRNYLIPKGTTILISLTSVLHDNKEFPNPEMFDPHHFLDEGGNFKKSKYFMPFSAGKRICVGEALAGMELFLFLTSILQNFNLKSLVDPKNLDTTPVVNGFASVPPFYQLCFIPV
Chain of Aurora kinase B (Q96GD4 whole entry): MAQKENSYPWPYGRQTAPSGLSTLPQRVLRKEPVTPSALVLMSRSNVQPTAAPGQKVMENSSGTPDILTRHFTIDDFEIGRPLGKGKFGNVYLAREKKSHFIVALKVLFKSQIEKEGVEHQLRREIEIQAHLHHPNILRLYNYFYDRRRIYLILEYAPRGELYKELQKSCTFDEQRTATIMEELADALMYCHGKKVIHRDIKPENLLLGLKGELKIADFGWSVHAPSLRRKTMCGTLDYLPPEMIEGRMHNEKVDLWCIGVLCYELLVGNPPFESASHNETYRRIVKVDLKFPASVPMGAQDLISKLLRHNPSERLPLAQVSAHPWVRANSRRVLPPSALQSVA
Chain of Ribosomal protein S6 kinase alpha-3 (P51812 whole entry): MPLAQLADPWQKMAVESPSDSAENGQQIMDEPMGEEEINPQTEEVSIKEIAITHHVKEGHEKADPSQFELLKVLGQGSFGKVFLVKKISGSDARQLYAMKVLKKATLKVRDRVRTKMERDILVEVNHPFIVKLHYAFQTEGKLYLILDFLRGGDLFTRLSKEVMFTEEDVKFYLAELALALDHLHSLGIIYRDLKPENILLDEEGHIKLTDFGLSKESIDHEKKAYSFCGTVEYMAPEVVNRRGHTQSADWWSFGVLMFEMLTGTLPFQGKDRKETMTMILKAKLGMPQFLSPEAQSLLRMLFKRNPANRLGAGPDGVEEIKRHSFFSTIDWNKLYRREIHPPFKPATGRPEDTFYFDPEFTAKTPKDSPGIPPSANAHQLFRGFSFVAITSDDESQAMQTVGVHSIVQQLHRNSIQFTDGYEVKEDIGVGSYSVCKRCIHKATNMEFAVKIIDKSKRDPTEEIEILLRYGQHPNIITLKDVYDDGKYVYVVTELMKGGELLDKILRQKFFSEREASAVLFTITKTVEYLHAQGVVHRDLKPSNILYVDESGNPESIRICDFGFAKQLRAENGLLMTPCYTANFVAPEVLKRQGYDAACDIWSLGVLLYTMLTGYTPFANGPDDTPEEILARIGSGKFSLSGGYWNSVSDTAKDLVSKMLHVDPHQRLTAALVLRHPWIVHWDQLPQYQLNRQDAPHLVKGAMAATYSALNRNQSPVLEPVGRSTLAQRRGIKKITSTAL
Chain of Testis-specific serine/threonine-protein kinase 2 (Q96PF2 whole entry): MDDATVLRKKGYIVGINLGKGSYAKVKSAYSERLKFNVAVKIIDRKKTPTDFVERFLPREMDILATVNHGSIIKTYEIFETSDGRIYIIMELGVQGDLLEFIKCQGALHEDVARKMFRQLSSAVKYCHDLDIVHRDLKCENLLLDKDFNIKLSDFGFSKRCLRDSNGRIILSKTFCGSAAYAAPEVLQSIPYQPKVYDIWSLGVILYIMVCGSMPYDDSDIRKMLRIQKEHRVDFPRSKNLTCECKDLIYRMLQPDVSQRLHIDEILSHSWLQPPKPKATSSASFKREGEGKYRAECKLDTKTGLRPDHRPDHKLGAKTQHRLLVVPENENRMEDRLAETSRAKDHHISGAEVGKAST
Chain of Interleukin-1 receptor-associated kinase 4 (Q9NWZ3 whole entry): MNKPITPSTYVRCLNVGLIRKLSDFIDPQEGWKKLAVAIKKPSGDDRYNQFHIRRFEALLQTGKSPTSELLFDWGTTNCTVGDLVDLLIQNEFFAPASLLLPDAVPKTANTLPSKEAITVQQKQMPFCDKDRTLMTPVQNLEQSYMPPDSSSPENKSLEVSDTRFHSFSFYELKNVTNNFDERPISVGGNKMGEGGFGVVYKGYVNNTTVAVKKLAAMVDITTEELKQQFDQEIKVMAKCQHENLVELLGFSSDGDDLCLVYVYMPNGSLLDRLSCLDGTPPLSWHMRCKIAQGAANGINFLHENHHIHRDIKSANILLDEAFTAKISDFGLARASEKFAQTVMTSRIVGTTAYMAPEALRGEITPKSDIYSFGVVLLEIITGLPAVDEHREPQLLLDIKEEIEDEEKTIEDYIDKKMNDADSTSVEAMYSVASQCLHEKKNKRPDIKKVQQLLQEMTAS
Chain of Cytochrome P450 2C19 (P33261 whole entry): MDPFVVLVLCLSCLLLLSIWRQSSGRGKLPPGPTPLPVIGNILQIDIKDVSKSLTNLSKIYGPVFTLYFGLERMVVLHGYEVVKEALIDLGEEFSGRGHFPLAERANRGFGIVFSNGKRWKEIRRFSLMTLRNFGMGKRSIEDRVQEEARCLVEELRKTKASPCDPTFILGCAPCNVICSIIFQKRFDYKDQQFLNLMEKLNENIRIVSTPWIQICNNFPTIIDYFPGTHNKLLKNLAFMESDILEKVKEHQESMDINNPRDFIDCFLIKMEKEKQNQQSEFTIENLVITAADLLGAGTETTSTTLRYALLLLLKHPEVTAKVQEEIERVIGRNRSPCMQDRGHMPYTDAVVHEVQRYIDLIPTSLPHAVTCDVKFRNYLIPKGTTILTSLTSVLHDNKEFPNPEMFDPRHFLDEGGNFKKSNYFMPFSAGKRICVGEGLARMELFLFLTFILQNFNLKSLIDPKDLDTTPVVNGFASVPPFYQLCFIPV

Cc1cn2c(-c3cn[nH]c3)cnc2c(Nc2cc(Cc3ccccn3)ns2)n1
fraction unbound [1]: 0.004
AUC(0-t) at 48 h [2]: 9.2 µM·h
Vd [3]: 1.6 L/kg
bioavailability [4]: 0%
IC50 [5]: 260 nM
AUC(0-t) at 48 h [6]: 2.8 µM·h
half-life [7]: 0.7 h
IC50 (Cytochrome P450 2C9): > 20000 nM
IC50 (Cytochrome P450 2C19): > 20000 nM
AUC(0-t) at 24 h [8]: 14.1 µM·h
half-life [9]: 0.5 h
bioavailability [10]: 77%
Vd [11]: 0.2 L/kg
inhibition in vivo at 300 mg/kg (A2780 [12]): 61%
clearance [13]: 0.9 L/h/kg
IC50 (Cytochrome P450 2D6): > 20000 nM
solubility kinetic [14]: 20 µM (≈ 7.77 µg/mL)
Kd (Aurora kinase A): 0.01 nM
bioavailability [15]: 10%
Vd [16]: 0.7 L/kg
IC50 [17]: > 500 nM
Kd (Aurora kinase B): 0.1 nM
bioavailability [18]: 15%
Vd [19]: 1 L/kg
fraction unbound [20]: 0.028
half-life [21]: 0.2 h
AUC(0-t) at 6 h [22]: 17.7 µM·h
AUC(0-t) at 48 h [23]: 0.8 µM·h

CCN(CCO)Cc1cc(Nc2nc(C)cn3c(-c4cn[nH]c4)cnc23)sn1
IC50 [5]: 180 nM
IC50 [17]: > 500 nM

Cc1cn2c(-c3cn[nH]c3)cnc2c(Nc2cc(C(NC(C)(C)C)c3ccccn3)ns2)n1 (single isomer, unassigned; (+))
inhibition in vivo at 10 mg/kg (A2780 [24]): 79%
fraction unbound [1]: 0.01
AUC(0-t) at 48 h [2]: 3.9 µM·h
Vd [3]: 5.3 L/kg
Cmin (HCT-116): 6 nM
AUC (Rattus norvegicus): 41 µM·h
Activity (Mus musculus [25]): Toxic
IC50 (Cytochrome P450 2C9): 6000 nM
hepatocyte CLint [26]: 5.1 µL/min/1e6 cells
AUC(0-t) at 24 h [8]: 23.5 µM·h
half-life [9]: 2.2 h
inhibition in vivo at 10 mg/kg (A2780 [27]): 94%
bioavailability [10]: 64%
Vd [11]: 3.7 L/kg
IC50 (Cytochrome P450 2D6): 11500 nM
solubility thermodynamic [28]: 5.3 mg/mL (≈ 11.5 mM)
Kd (Aurora kinase A): 0.01 nM
AUC(0-t) at 24 h [29]: 33 µM·h
Activity (Mus musculus [30]): 10%
IC50 [31]: 380 nM
hepatocyte CLint [32]: 11.8 µL/min/1e6 cells
AUC(0-t) at 48 h [33]: 4 µM·h
IC50 [34]: > 1000 nM
Activity (Mus musculus [35]): 10%
half-life [36]: 2.6 h
hepatocyte CLint [37]: 27.6 µL/min/1e6 cells
hepatocyte CLint [38]: 11.5 µL/min/1e6 cells
inhibition in vivo at 25 mg/kg (A2780 [39]): 86%
Kd (Aurora kinase B): 0.01 nM
clearance [40]: 0.66 L/h/kg
bioavailability [18]: 86%
Vd [19]: 1.3 L/kg
fraction unbound [20]: 0.028
half-life [21]: 1.8 h
bioavailability [41]: 40%
Vd [42]: 2.5 L/kg
bioavailability [43]: 8%
